Columns and labels:
[1] = tested on: MOOVA (Monochoria vaginalis); test: Flooded paddy, preemergence weed control; type: in vivo, Presl.; conditions: rated 3-4 weeks after treatment, 0-9 rating scale
Outline: (§1)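 Preemergence, flooded: propagules planted at 0.5 cm depth in silt loam, water level maintained at 1.5 to 3 cm over soil, containers kept on greenhouse benches. Activity scored 0-9 by eye relative to a control plant.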

GALAP (Galium aparine) [2] = test: Postemergence herbicidal evaluation; type: in vivo; conditions: for GALAP herbicidal rating: postemergence
Outline: (§2)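 Visual 0–9 injury scores versus control plants, covering stand, vigour, malformation, size, chlorosis and general appearance, taken four to five weeks post-spray and averaged over replicate tests. Plants were sprayed at roughly two weeks old and held on greenhouse benches.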

[3] = tested on: IPOHE (Ipomoea hederacea); test: Preemergence herbicidal evaluation; type: in vivo, (L.) Jacq.; conditions: rated 4-5 weeks after treatment
ZEAMX (Corn, Field) = test: Preemergence herbicidal evaluation; type: in vivo, Zea mays, L.; conditions: rated 4-5 weeks after treatment
SETVI (Setaria viridis) [4] = test: Preemergence herbicidal evaluation; type: in vivo, (L.) Beau; conditions: rated 4-5 weeks after treatment
Outline: (§3)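 Rating 0–9, visual, vs control; 4–5 wk after spraying seeded cups with compound in aq. acetone; conventional greenhouse care.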

[5] = tested on: ECHCG (Echinochloa crus-galli); test: Preemergence herbicidal evaluation; type: in vivo, (L.) Beau; conditions: rated 4-5 weeks after treatment
Outline: as §3

SETVI (Setaria viridis) [6] = test: Postemergence herbicidal evaluation; type: in vivo, (L.) Beau; conditions: for SETVI herbicidal rating: postemergence
Outline: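 Seedlings grown about two weeks were sprayed with compound in 50/50 acetone/water containing 0.5% TWEEN 20, at about 0.0040 to 1.000 kg/ha via nozzle at 40 psi. Plants were kept under greenhouse conditions and visually rated on a 0-9 scale versus control four to five weeks after treatment; replicate tests averaged.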

GALAP (Galium aparine) [7] = test: Preemergence herbicidal evaluation; type: in vivo; conditions: rated 4-5 weeks after treatment
Outline: as §3

[8] = tested on: GLXMAW (Soybean, Williams); test: Postemergence herbicidal evaluation; type: in vivo, Glycine max, (L.) Merr. cv Williams; conditions: for GLXMAW herbicidal rating: postemergence
Outline: as §2

CYPIR (Cyperus iria) = test: Flooded paddy, preemergence weed control; type: in vivo; conditions: rated 3-4 weeks after treatment, 0-9 rating scale
Outline: as §1

[9] = tested on: GLXMAW (Soybean, Williams); test: Preemergence herbicidal evaluation; type: in vivo, Glycine max, (L.) Merr. cv Williams; conditions: rated 4-5 weeks after treatment

SMILES	herbicidal rating, MOOVA ([1]; rate 0.0320 kg/ha)	herbicidal rating, MOOVA ([1]; rate 0.1250 kg/ha)	Preemergence herbicidal rating IPOHE ([3]; Rate 0.0620 kg/ha)	Preemergence herbicidal rating IPOHE ([3]; Rate 0.1250 kg/ha)	Preemergence herbicidal rating IPOHE ([3]; Rate 0.2500 kg/ha)	Preemergence herbicidal rating ZEAMX (ZEAMX (Corn, Field); Rate 0.0620 kg/ha)	Preemergence herbicidal rating ZEAMX (ZEAMX (Corn, Field); Rate 0.1250 kg/ha)	Preemergence herbicidal rating ZEAMX (ZEAMX (Corn, Field); Rate 0.2500 kg/ha)	Preemergence herbicidal rating SETVI (SETVI (Setaria viridis) [4]; Rate 0.0620 kg/ha)	Preemergence herbicidal rating SETVI (SETVI (Setaria viridis) [4]; Rate 0.1250 kg/ha)	Preemergence herbicidal rating SETVI (SETVI (Setaria viridis) [4]; Rate 0.2500 kg/ha)	Preemergence herbicidal rating ECHCG ([5]; Rate 0.0620 kg/ha)	Preemergence herbicidal rating ECHCG ([5]; Rate 0.1250 kg/ha)	Preemergence herbicidal rating ECHCG ([5]; Rate 0.2500 kg/ha)	Preemergence herbicidal rating GALAP (GALAP (Galium aparine) [7]; Rate 0.1250 kg/ha)	Preemergence herbicidal rating GALAP (GALAP (Galium aparine) [7]; Rate 0.2500 kg/ha)	herbicidal rating, CYPIR (CYPIR (Cyperus iria); rate 0.0320 kg/ha)	herbicidal rating, CYPIR (CYPIR (Cyperus iria); rate 0.1250 kg/ha)	Preemergence herbicidal rating GLXMAW ([9]; Rate 0.0620 kg/ha)	Preemergence herbicidal rating GLXMAW ([9]; Rate 0.1250 kg/ha)	other results
Cc1cccnc1-c1nsc2cc(F)c(N3C(=O)C4=C(CCCC4)C3=O)cc12 [Compound 46, N-[6-fluoro-3-(3-methyl-2-pyridyl)-1,2-benzisothiazol-5-yl]-1-cyclohexene-1,2-dicarboximide]	7.0	7.0	0.0	2.0	9.0	0.0	0.0	0.0	9.0	9.0	9.0	1.0	5.0	8.0	0.0	0.0	1.0	3.0	0.0	1.0	Postemergence herbicidal rating, GALAP (GALAP (Galium aparine) [2]; rate 0.0320 kg/ha): 4.0; Postemergence herbicidal rating, GALAP (GALAP (Galium aparine) [2]; rate 0.0620 kg/ha): 6.0; Postemergence herbicidal rating, GALAP (GALAP (Galium aparine) [2]; rate 0.1250 kg/ha): 5.0; Postemergence herbicidal rating, SETVI (SETVI (Setaria viridis) [6]; rate 0.0320 kg/ha): 3.0; Postemergence herbicidal rating, SETVI (SETVI (Setaria viridis) [6]; rate 0.0620 kg/ha): 4.0; Postemergence herbicidal rating, SETVI (SETVI (Setaria viridis) [6]; rate 0.1250 kg/ha): 9.0; Postemergence herbicidal rating, GLXMAW ([8]; rate 0.0320 kg/ha): 6.0; Postemergence herbicidal rating, GLXMAW ([8]; rate 0.0620 kg/ha): 7.5; Postemergence herbicidal rating, GLXMAW ([8]; rate 0.1250 kg/ha): 7.5; Preemergence herbicidal rating GLXMAW ([9]; Rate 0.2500 kg/ha): 2.0
C=C1COC(c2nsc3ccc(-n4c(=O)cc(C(F)(F)F)n(C)c4=O)cc23)OC1 [Compound 58, 2,4(1H,3H)-pyrimidinedione, 1-methyl-3-[3-(5-methylene-m-dioxan-2-yl)-1,2-benzisothiazol-5-yl]-6-(trifluoromethyl)-]	9.0	9.0	6.5	7.5	9.0	8.0	9.0	9.0	8.0	9.0	9.0	9.0	9.0	9.0	9.0	9.0	6.0	9.0	9.0	8.0	GALAP herbicidal rating (GALAP (Galium aparine) [2]; rate 0.0320 kg/ha): 7.0; GALAP herbicidal rating (GALAP (Galium aparine) [2]; rate 0.0620 kg/ha): 9.0; SETVI herbicidal rating (SETVI (Setaria viridis) [6]; rate 0.0320 kg/ha): 1.0; SETVI herbicidal rating (SETVI (Setaria viridis) [6]; rate 0.0620 kg/ha): 6.0; Preemergence herbicidal rating GALAP (GALAP (Galium aparine) [7]; Rate 0.0620 kg/ha): 9.0; GLXMAW herbicidal rating ([8]; rate 0.0320 kg/ha): 7.0; GLXMAW herbicidal rating ([8]; rate 0.0620 kg/ha): 7.5; Preemergence herbicidal rating GLXMAW ([9]; Rate 0.2500 kg/ha): 9.0
Cc1cnn(-c2nsc3ccc(-n4c(=O)cc(C(F)(F)F)n(C)c4=O)cc23)c1 [Compound 59, 1-methyl-3-[3-(4-methylpyrazol-1-yl)-1,2-benzisothiazol-5-yl]-6-(trifluoromethyl)uracil]	3.0	9.0	0.0	1.0	3.0	1.0	5.0	5.0	6.0	6.0	9.0	2.0	3.0	7.0	5.0	4.0	3.0	9.0	0.0	2.0	herbicidal rating, MOOVA ([1]; rate 0.0080 kg/ha): 0.0; GALAP herbicidal rating (GALAP (Galium aparine) [2]; rate 0.0320 kg/ha): 0.0; GALAP herbicidal rating (GALAP (Galium aparine) [2]; rate 0.0620 kg/ha): 3.0; GALAP herbicidal rating (GALAP (Galium aparine) [2]; rate 0.1250 kg/ha): 3.0; SETVI herbicidal rating (SETVI (Setaria viridis) [6]; rate 0.0320 kg/ha): 0.0; SETVI herbicidal rating (SETVI (Setaria viridis) [6]; rate 0.1250 kg/ha): 3.0; Preemergence herbicidal rating GALAP (GALAP (Galium aparine) [7]; Rate 0.0620 kg/ha): 5.0; GLXMAW herbicidal rating ([8]; rate 0.0320 kg/ha): 7.5; GLXMAW herbicidal rating ([8]; rate 0.0620 kg/ha): 7.5; GLXMAW herbicidal rating ([8]; rate 0.1250 kg/ha): 8.0; herbicidal rating, CYPIR (CYPIR (Cyperus iria); rate 0.0080 kg/ha): 0.0; Preemergence herbicidal rating GLXMAW ([9]; Rate 0.2500 kg/ha): 3.0
Cn1c(C(F)(F)F)cc(=O)n(-c2ccc3snc(-c4ccco4)c3c2)c1=O [Compound 60, 3-[3-(2-furyl)-1,2-benzisothiazol-5-yl]-1-methyl-6-(trifluoromethyl)uracil]	9.0	9.0	0.0	0.0	9.0	3.0	5.0	6.0	3.0	7.0	9.0	1.0	6.0	7.0	7.0	9.0	6.0	7.0	1.0	3.0	herbicidal rating, MOOVA ([1]; rate 0.0080 kg/ha): 0.0; GALAP herbicidal rating (GALAP (Galium aparine) [2]; rate 0.0320 kg/ha): 7.0; GALAP herbicidal rating (GALAP (Galium aparine) [2]; rate 0.0620 kg/ha): 9.0; SETVI herbicidal rating (SETVI (Setaria viridis) [6]; rate 0.0320 kg/ha): 3.0; SETVI herbicidal rating (SETVI (Setaria viridis) [6]; rate 0.0620 kg/ha): 2.0; Preemergence herbicidal rating GALAP (GALAP (Galium aparine) [7]; Rate 0.0620 kg/ha): 6.0; GLXMAW herbicidal rating ([8]; rate 0.0320 kg/ha): 5.0; GLXMAW herbicidal rating ([8]; rate 0.0620 kg/ha): 7.0; herbicidal rating, CYPIR (CYPIR (Cyperus iria); rate 0.0080 kg/ha): 0.0; Preemergence herbicidal rating GLXMAW ([9]; Rate 0.2500 kg/ha): 4.0
Cn1c(C(F)(F)F)cc(=O)n(-c2cc3c(C4OCCCO4)nsc3cc2F)c1=O [Compound 62, 3-(3-m-dioxan-2-yl-6-fluoro-1,2-benzisothiazol-5-yl)-1-methyl-6-(trifluoromethyl)uracil]	9.0	9.0	9.0	9.0	9.0	9.0	9.0	9.0	9.0	9.0	9.0	9.0	9.0	9.0	9.0	9.0	9.0	9.0	9.0	9.0	herbicidal rating, MOOVA ([1]; rate 0.0080 kg/ha): 8.0; GALAP herbicidal rating (GALAP (Galium aparine) [2]; rate 0.0320 kg/ha): 9.0; GALAP herbicidal rating (GALAP (Galium aparine) [2]; rate 0.0620 kg/ha): 9.0; SETVI herbicidal rating (SETVI (Setaria viridis) [6]; rate 0.0320 kg/ha): 9.0; SETVI herbicidal rating (SETVI (Setaria viridis) [6]; rate 0.0620 kg/ha): 9.0; Preemergence herbicidal rating GALAP (GALAP (Galium aparine) [7]; Rate 0.0620 kg/ha): 9.0; GLXMAW herbicidal rating ([8]; rate 0.0320 kg/ha): 9.0; GLXMAW herbicidal rating ([8]; rate 0.0620 kg/ha): 9.0; herbicidal rating, CYPIR (CYPIR (Cyperus iria); rate 0.0080 kg/ha): 4.5; Preemergence herbicidal rating GLXMAW ([9]; Rate 0.2500 kg/ha): 9.0

Source: US6706663B2, “Herbicidal 3-heterocyclic substituted benzisothiazole and benzisoxazole compounds” (Wyeth, priority 2000, dated 2004)
